For nine cell lines, relative viability results are on record in the supplement of paper PMC10307832.

What all share (experiment): relative viability (nuclei count vs DMSO), 5 days (fraction); higher = more cells survive
Compound in one assay: COc1cc2c(Oc3ccc(NC(=O)C4(C(=O)Nc5ccc(F)cc5)CC4)cc3F)ccnc2cc1OCCCN1CCOCC1 [Foretinib] (anchor plate)
The following applies: 0.25 µM. Summed up:
(§1)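 Viability was read as treated-well nuclei divided by vehicle-well nuclei, using the median across plates. Lung cancer cell lines in 1536-well plates were kept overnight at 37 °C, pinned with five √10-spaced library-drug doses, and after 5 days were Hoechst-stained, imaged at 4× and counted in MetaXpress. Plates passed only with control CV below 25% and at least one doubling.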

Compound in assay [1]: O=S(=O)(c1ccccc1)N(CC(F)(F)F)c1ccc(C(O)(C(F)(F)F)C(F)(F)F)cc1
The gist of the method:
as §1

Compound in the assay “RO-3306 + Palbociclib”: C1=CC2=C(C=CC(=C2)C=C3C(=O)NC(=NCC4=CC=CS4)S3)N=C1 [RO-3306] + CC(=O)c1c(C)c2cnc(Nc3ccc(N4CCNCC4)cn3)nc2n(C2CCCC2)c1=O [Palbociclib] (partner 0.5 µM)
Summed up: (§2)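 Relative viability was taken as the ratio of nuclei in treated wells to nuclei in vehicle wells. Lung cancer cell lines in 1536-well plates received compounds by pin tool one day after seeding, either one drug alone or a fixed anchor-drug dose plus five library-drug doses (not always all listed) in √10 steps. Nuclei were counted on 4× images after 5 days of treatment, and values are medians of duplicate plates.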

Compound in the assay “RO-3306 + Dasatinib”: C1=CC2=C(C=CC(=C2)C=C3C(=O)NC(=NCC4=CC=CS4)S3)N=C1 [RO-3306] + Cc1nc(Nc2ncc(C(=O)Nc3c(C)cccc3Cl)s2)cc(N2CCN(CCO)CC2)n1 [Dasatinib] (partner 0.075 µM)
Summed up:
as §2

Compound in assay [2]: O=S(=O)(c1ccccc1)N(CC(F)(F)F)c1ccc(C(O)(C(F)(F)F)C(F)(F)F)cc1 + CC1(C)CCC(c2ccc(Cl)cc2)=C(CN2CCN(c3ccc(C(=O)NS(=O)(=O)c4ccc(N[C@H](CCN5CCOCC5)CSc5ccccc5)c(S(=O)(=O)C(F)(F)F)c4)cc3)CC2)C1 [Navitoclax] (partner 0.5 µM)
The gist of the method: as §2

On to NCI-H460, for which the relative viability with Foretinib amounted to 1; in assay [1] (0.8 µM) it was 1.06; in assay [1] (2.53 µM), 0.949; in assay [1] (8 µM), 0.943; in the assay with RO-3306 + Palbociclib (first compound 0.01 µM) it was 0.191; in the assay with RO-3306 + Palbociclib (first compound 0.03162 µM) it was 0.12. In addition, the relative viability with RO-3306 + Palbociclib (first compound 0.1 µM) came to 0.142; in the assay with RO-3306 + Palbociclib (first compound 0.3162 µM), 0.26; with RO-3306 + Palbociclib (first compound 1 µM) it was 0.136; with RO-3306 + Dasatinib (first compound 0.01 µM), 0.543; in the assay with RO-3306 + Dasatinib (first compound 0.03162 µM), 0.435; in the assay with RO-3306 + Dasatinib (first compound 0.1 µM), 0.448. In addition, the relative viability in the assay with RO-3306 + Dasatinib (first compound 0.3162 µM) came to 0.518; with RO-3306 + Dasatinib (first compound 1 µM) it was 0.385; in assay [2] (first compound 0.8 µM) it was 1.42; in assay [2] (first compound 2.53 µM) it was 1.01; in assay [2] (first compound 8 µM) it was 0.967.

Consider HCC-827, for which the relative viability worked out at 0.976 in the assay with Foretinib; 1.1 in assay [1] (0.8 µM); 1.02 in assay [1] (2.53 µM); 0.975 in assay [1] (8 µM); 0.462 in the assay with RO-3306 + Palbociclib (first compound 0.01 µM); 0.477 with RO-3306 + Palbociclib (first compound 0.03162 µM). The relative viability in the assay with RO-3306 + Palbociclib (first compound 0.1 µM) stood at 0.461; with RO-3306 + Palbociclib (first compound 0.3162 µM), 0.54; with RO-3306 + Palbociclib (first compound 1 µM), 0.54; in the assay with RO-3306 + Dasatinib (first compound 0.01 µM), 0.221; with RO-3306 + Dasatinib (first compound 0.03162 µM) it was 0.314; in the assay with RO-3306 + Dasatinib (first compound 0.1 µM), 0.24. Further, the relative viability in the assay with RO-3306 + Dasatinib (first compound 0.3162 µM) worked out at 0.317; with RO-3306 + Dasatinib (first compound 1 µM) it was 0.299; in assay [2] (first compound 0.8 µM), 1.02; in assay [2] (first compound 2.53 µM) it was 0.999; in assay [2] (first compound 8 µM) it was 0.949.

For NCI-H838, the relative viability with Foretinib came to 1.03; in assay [1] (0.8 µM), 1.12; in assay [1] (2.53 µM), 0.962; in assay [1] (8 µM), 1.02; with RO-3306 + Palbociclib (first compound 0.01 µM), 0.228; with RO-3306 + Palbociclib (first compound 0.03162 µM), 0.211. In addition, the relative viability amounted to 0.254 with RO-3306 + Palbociclib (first compound 0.1 µM); 0.254 with RO-3306 + Palbociclib (first compound 0.3162 µM); 0.193 with RO-3306 + Palbociclib (first compound 1 µM); 0.351 with RO-3306 + Dasatinib (first compound 0.01 µM); 0.254 with RO-3306 + Dasatinib (first compound 0.03162 µM); 0.244 with RO-3306 + Dasatinib (first compound 0.1 µM). Also, the relative viability with RO-3306 + Dasatinib (first compound 0.3162 µM) was 0.295; in the assay with RO-3306 + Dasatinib (first compound 1 µM), 0.273; in assay [2] (first compound 0.8 µM) it was 1.3; in assay [2] (first compound 2.53 µM) it was 1.25; in assay [2] (first compound 8 µM) it was 1.09.

Consider SW 1573, for which the relative viability was determined as 0.879 in the assay with Foretinib; 1.17 in assay [1] (0.8 µM); 1.01 in assay [1] (2.53 µM); 0.884 in assay [1] (8 µM); 0.445 with RO-3306 + Palbociclib (first compound 0.01 µM); 0.399 with RO-3306 + Palbociclib (first compound 0.03162 µM). Further, the relative viability with RO-3306 + Palbociclib (first compound 0.1 µM) amounted to 0.377; with RO-3306 + Palbociclib (first compound 0.3162 µM), 0.316; in the assay with RO-3306 + Palbociclib (first compound 1 µM) it was 0.369; with RO-3306 + Dasatinib (first compound 0.01 µM), 0.455; with RO-3306 + Dasatinib (first compound 0.1 µM), 0.466; in the assay with RO-3306 + Dasatinib (first compound 0.3162 µM), 0.497. In addition, the relative viability in the assay with RO-3306 + Dasatinib (first compound 1 µM) stood at 0.429; in assay [2] (first compound 0.8 µM), 1.26; in assay [2] (first compound 2.53 µM), 0.874; in assay [2] (first compound 8 µM), 0.641.

For NCI-H2347, the relative viability in the assay with Foretinib worked out at 0.902; in assay [1] (0.8 µM), 1.08; in assay [1] (2.53 µM), 1.01; in assay [1] (8 µM) it was 1.04; with RO-3306 + Palbociclib (first compound 0.01 µM) it was 0.475; with RO-3306 + Palbociclib (first compound 0.03162 µM), 0.438. In addition, the relative viability is 0.397 in the assay with RO-3306 + Palbociclib (first compound 0.1 µM); 0.387 with RO-3306 + Palbociclib (first compound 0.3162 µM); 0.417 in the assay with RO-3306 + Palbociclib (first compound 1 µM); 0.296 in the assay with RO-3306 + Dasatinib (first compound 0.01 µM); 0.285 with RO-3306 + Dasatinib (first compound 0.03162 µM); 0.285 in the assay with RO-3306 + Dasatinib (first compound 0.1 µM). Besides, the relative viability with RO-3306 + Dasatinib (first compound 0.3162 µM) turned out to be 0.284; with RO-3306 + Dasatinib (first compound 1 µM), 0.283; in assay [2] (first compound 0.8 µM), 0.955; in assay [2] (first compound 2.53 µM) it was 0.921; in assay [2] (first compound 8 µM) it was 0.582.

On to HARA, for which the relative viability in the assay with Foretinib is 0.959; in assay [1] (0.8 µM), 0.933; in assay [1] (2.53 µM), 0.803; in assay [1] (8 µM), 0.962; with RO-3306 + Palbociclib (first compound 0.01 µM), 0.207; with RO-3306 + Palbociclib (first compound 0.1 µM) it was 0.265. The relative viability with RO-3306 + Palbociclib (first compound 0.3162 µM) stood at 0.24; with RO-3306 + Palbociclib (first compound 1 µM), 0.311; with RO-3306 + Dasatinib (first compound 0.01 µM), 0.362; with RO-3306 + Dasatinib (first compound 0.03162 µM), 0.256; with RO-3306 + Dasatinib (first compound 0.1 µM), 0.356; in the assay with RO-3306 + Dasatinib (first compound 0.3162 µM), 0.306. Besides, the relative viability with RO-3306 + Dasatinib (first compound 1 µM) was found to be 0.257; in assay [2] (first compound 0.8 µM), 1.21; in assay [2] (first compound 2.53 µM), 1.14; in assay [2] (first compound 8 µM), 0.948.

Regarding NCI-H1355, the relative viability with Foretinib was determined as 0.973; in assay [1] (0.8 µM), 1.05; in assay [1] (2.53 µM) it was 0.918; in assay [1] (8 µM) it was 0.884; with RO-3306 + Palbociclib (first compound 0.01 µM), 0.421; with RO-3306 + Palbociclib (first compound 0.03162 µM), 0.406. For the same cell line, the relative viability was 0.405 with RO-3306 + Palbociclib (first compound 0.1 µM); 0.412 with RO-3306 + Palbociclib (first compound 0.3162 µM); 0.38 with RO-3306 + Palbociclib (first compound 1 µM); 0.673 with RO-3306 + Dasatinib (first compound 0.01 µM); 0.683 in the assay with RO-3306 + Dasatinib (first compound 0.1 µM); 0.703 with RO-3306 + Dasatinib (first compound 0.3162 µM). Further, the relative viability amounted to 0.504 with RO-3306 + Dasatinib (first compound 1 µM), 1.09 in assay [2] (first compound 0.8 µM), 0.754 in assay [2] (first compound 2.53 µM) and 0.826 in assay [2] (first compound 8 µM).

Consider NCI-H1395, for which the relative viability was found to be 1 in the assay with Foretinib; 0.867 in assay [1] (0.8 µM); 0.894 in assay [1] (2.53 µM); 0.914 in assay [1] (8 µM); 0.696 in the assay with RO-3306 + Palbociclib (first compound 0.01 µM); 0.678 with RO-3306 + Palbociclib (first compound 0.03162 µM). Also, the relative viability was 0.58 with RO-3306 + Palbociclib (first compound 0.1 µM); 0.641 with RO-3306 + Palbociclib (first compound 0.3162 µM); 0.558 in the assay with RO-3306 + Palbociclib (first compound 1 µM); 0.4 in the assay with RO-3306 + Dasatinib (first compound 0.01 µM); 0.494 with RO-3306 + Dasatinib (first compound 0.03162 µM); 0.372 with RO-3306 + Dasatinib (first compound 0.1 µM). Also, the relative viability with RO-3306 + Dasatinib (first compound 0.3162 µM) was determined as 0.409; with RO-3306 + Dasatinib (first compound 1 µM), 0.587; in assay [2] (first compound 0.8 µM), 1.01; in assay [2] (first compound 2.53 µM) it was 1.06; in assay [2] (first compound 8 µM) it was 1.31.

On to NCI-H1437, for which the relative viability came out at 1.24 in the assay with Foretinib; 0.95 in assay [1] (0.8 µM); 0.877 in assay [1] (2.53 µM); 0.849 in assay [1] (8 µM); 0.312 with RO-3306 + Palbociclib (first compound 0.01 µM); 0.316 with RO-3306 + Palbociclib (first compound 0.03162 µM). Moreover, the relative viability in the assay with RO-3306 + Palbociclib (first compound 0.1 µM) amounted to 0.294; with RO-3306 + Palbociclib (first compound 0.3162 µM), 0.317; with RO-3306 + Palbociclib (first compound 1 µM) it was 0.289; with RO-3306 + Dasatinib (first compound 0.01 µM) it was 0.428; in the assay with RO-3306 + Dasatinib (first compound 0.03162 µM) it was 0.288; with RO-3306 + Dasatinib (first compound 0.1 µM), 0.283. The relative viability with RO-3306 + Dasatinib (first compound 0.3162 µM) came to 0.405; with RO-3306 + Dasatinib (first compound 1 µM) it was 0.461; in assay [2] (first compound 0.8 µM), 1.04; in assay [2] (first compound 2.53 µM), 0.859; in assay [2] (first compound 8 µM) it was 0.893.
